In patent US20050197364A1, “Amide compounds as ion channel ligands and uses thereof” (priority 2003, published 2005):

Tested on: VR1 receptor
Experiment: High throughput calcium imaging assay (Fura2, Flex Station) of VR1 antagonists, pH 5.1 stimulus
Format: cell-based
Conditions: 1 uM compound; inhibition of calcium ion influx induced by capsaicin stimulation
Protocol: Therefore the functional activity of compounds at the VR1 receptor may be determined by measuring changes in intracellular calcium levels in 293 cells expressing capsaicin-insensitive VR1 receptor variants. A dual wavelength ratiometric dye, Fura2, was used as an indicator of relative levels of calcium ions in a 96 well format using a bench top scanning fluorometer with integrated fluidics and temperature control (Flex Station, Molecular Devices).
293 cells were grown on PDL coated 96-well black-walled plates, in the presence of a DMEM medium containing 5% Penstrep, 5% Glutamax, 200 ug/mL Hygromycin, 5 μg/mL Blasticide and 10% heat inactivated FBS. Prior to assay, the cells were loaded with 5 μg/mL Fura2 in normal saline solution at 37° C. for 40 minutes. Cells were then washed with normal saline to remove the dye.
The assay consists of two stages; a pre-treatment phase followed by a treatment phase.
50 μl of a compound solution was added to the cells (Pre-treatment). Immediately following, 50 μl of the test compound in a saline solution at pH 5.1 was added. Fura2 was excited at 340 and 380 nM to indicate relative calcium concentration. Changes in wavelength measurements were made throughout the course of the experiment in 4 second intervals over a period of 3 minutes. Responses were measured as peak fluorescence ratio after test compound addition minus baseline fluorescence ratio prior to pre-treatment and were calculated using SoftMaxPro softwareData were expressed as percentage inhibition calculated using Excel as follows: [formula]

SMILES: N#Cc1cccc(NC(=O)c2ccc(-c3ncccc3Cl)cc2F)c1 [Compound 84]
- % Inhibition @ 1 uM: + + + + (compound exhibited 75% or greater inhibition of calcium ion influx induced by capsaicin stimulation)

SMILES: CC(C)(C)c1ccc(NC(=O)c2ccc(-c3ncccc3Cl)cc2F)cc1 [Compound 86]
- % Inhibition @ 1 uM: + (compound exhibited 0-25% inhibition of calcium ion influx induced by capsaicin stimulation)

SMILES: Cc1cccnc1NC(=O)c1ccc(-c2ncccc2Cl)cc1F [Compound 95]
- % Inhibition @ 1 uM: + (compound exhibited 0-25% inhibition of calcium ion influx induced by capsaicin stimulation)

SMILES: O=C(Nc1ccc(C(F)(F)F)cn1)c1ccc(-c2ncccc2Cl)cc1F [Compound 97]
- % Inhibition @ 1 uM: + (compound exhibited 0-25% inhibition of calcium ion influx induced by capsaicin stimulation)

SMILES: O=C(Nc1ncc(C(F)(F)F)cc1Cl)c1ccc(-c2ncccc2Cl)cc1F [Compound 98]
- % Inhibition @ 1 uM: + (compound exhibited 0-25% inhibition of calcium ion influx induced by capsaicin stimulation)

SMILES: O=C(Nc1cccnc1Cl)c1ccc(-c2ncccc2Cl)cc1F [Compound 101]
- % Inhibition @ 1 uM: + (compound exhibited 0-25% inhibition of calcium ion influx induced by capsaicin stimulation)

SMILES: COc1ccc(NC(=O)c2ccc(-c3ncccc3Cl)cc2F)cn1 [Compound 103]
- % Inhibition @ 1 uM: + (compound exhibited 0-25% inhibition of calcium ion influx induced by capsaicin stimulation)

SMILES: O=C(Nc1ccc2ncccc2c1)c1ccc(-c2ncccc2Cl)cc1F [Compound 107]
- % Inhibition @ 1 uM: + + (compound exhibited 25-50% inhibition of calcium ion influx induced by capsaicin stimulation)

SMILES: O=C(Nc1ccc2ccccc2c1)c1ccc(-c2ncccc2Cl)cc1F [Compound 109]
- % Inhibition @ 1 uM: + + (compound exhibited 25-50% inhibition of calcium ion influx induced by capsaicin stimulation)

SMILES: CC(C)(C)NC(=O)c1ccc(-c2ncccc2Cl)c(F)c1 [Compound 110]
- % Inhibition @ 1 uM: + (compound exhibited 0-25% inhibition of calcium ion influx induced by capsaicin stimulation)

SMILES: O=C(Nc1ccc(F)cc1)c1ccc(-c2ncccc2Cl)c(F)c1 [Compound 114]
- % Inhibition @ 1 uM: + (compound exhibited 0-25% inhibition of calcium ion influx induced by capsaicin stimulation)

SMILES: O=C(Nc1cccc(Cl)c1)c1ccc(-c2ncccc2Cl)c(F)c1 [Compound 116]
- % Inhibition @ 1 uM: + (compound exhibited 0-25% inhibition of calcium ion influx induced by capsaicin stimulation)

SMILES: CCCc1ccccc1NC(=O)c1ccc(-c2ncccc2Cl)c(F)c1 [Compound 118]
- % Inhibition @ 1 uM: + (compound exhibited 0-25% inhibition of calcium ion influx induced by capsaicin stimulation)

SMILES: COc1cccc(NC(=O)c2ccc(-c3ncccc3Cl)c(F)c2)c1 [Compound 119]
- % Inhibition @ 1 uM: + (compound exhibited 0-25% inhibition of calcium ion influx induced by capsaicin stimulation)

SMILES: O=C(Nc1cccc(Cl)c1Cl)c1ccc(-c2ncccc2Cl)c(F)c1 [Compound 122]
- % Inhibition @ 1 uM: + + + + (compound exhibited 75% or greater inhibition of calcium ion influx induced by capsaicin stimulation)

SMILES: N#Cc1cccc(NC(=O)c2ccc(-c3ncccc3Cl)c(F)c2)c1 [Compound 124]
- % Inhibition @ 1 uM: + + + + (compound exhibited 75% or greater inhibition of calcium ion influx induced by capsaicin stimulation)

SMILES: CC(C)(C)c1ccc(NC(=O)c2ccc(-c3ncccc3Cl)c(F)c2)cc1 [Compound 125]
- % Inhibition @ 1 uM: + + + + (compound exhibited 75% or greater inhibition of calcium ion influx induced by capsaicin stimulation)

SMILES: CCCCc1ccc(NC(=O)c2ccc(-c3ncccc3Cl)c(F)c2)cc1 [Compound 127]
- % Inhibition @ 1 uM: + + + + (compound exhibited 75% or greater inhibition of calcium ion influx induced by capsaicin stimulation)

SMILES: Cc1ccc(NC(=O)c2ccc(-c3ncccc3Cl)c(F)c2)c(C)c1 [Compound 128]
- % Inhibition @ 1 uM: + + + + (compound exhibited 75% or greater inhibition of calcium ion influx induced by capsaicin stimulation)

SMILES: O=C(Nc1ccc(F)cc1[N+](=O)[O-])c1ccc(-c2ncccc2Cl)c(F)c1 [Compound 132]
- % Inhibition @ 1 uM: + + + + (compound exhibited 75% or greater inhibition of calcium ion influx induced by capsaicin stimulation)

SMILES: O=C(Nc1ccc(C(F)(F)F)cc1)c1ccc(-c2ncccc2Cl)c(F)c1 [Compound 135]
- % Inhibition @ 1 uM: + + (compound exhibited 25-50% inhibition of calcium ion influx induced by capsaicin stimulation)

SMILES: Cc1cc(C)nc(NC(=O)c2ccc(-c3ncccc3Cl)c(F)c2)c1 [Compound 139]
- % Inhibition @ 1 uM: + (compound exhibited 0-25% inhibition of calcium ion influx induced by capsaicin stimulation)

SMILES: O=C(Nc1ccncc1)c1ccc(-c2ncccc2Cl)c(F)c1 [Compound 140]
- % Inhibition @ 1 uM: + + + + (compound exhibited 75% or greater inhibition of calcium ion influx induced by capsaicin stimulation)

SMILES: Cc1ccnc(NC(=O)c2ccc(-c3ncccc3Cl)c(F)c2)c1 [Compound 145]
- % Inhibition @ 1 uM: + + + + (compound exhibited 75% or greater inhibition of calcium ion influx induced by capsaicin stimulation)

SMILES: O=C(Nc1ccc(C(F)(F)F)cn1)c1ccc(-c2ncccc2Cl)c(F)c1 [Compound 149]
- % Inhibition @ 1 uM: + + (compound exhibited 25-50% inhibition of calcium ion influx induced by capsaicin stimulation)

SMILES: O=C(Nc1ccc(Cl)nc1)c1ccc(-c2ncccc2Cl)c(F)c1 [Compound 152]
- % Inhibition @ 1 uM: + (compound exhibited 0-25% inhibition of calcium ion influx induced by capsaicin stimulation)

SMILES: COc1ccc(NC(=O)c2ccc(-c3ncccc3Cl)c(F)c2)cn1 [Compound 153]
- % Inhibition @ 1 uM: + + (compound exhibited 25-50% inhibition of calcium ion influx induced by capsaicin stimulation)

SMILES: O=C(Nc1ccc2ncccc2c1)c1ccc(-c2ncccc2Cl)c(F)c1 [Compound 156]
- % Inhibition @ 1 uM: + + + + (compound exhibited 75% or greater inhibition of calcium ion influx induced by capsaicin stimulation)

SMILES: O=C(Nc1cc[nH]n1)c1ccc(-c2ncccc2Cl)c(F)c1 [Compound 158]
- % Inhibition @ 1 uM: + (compound exhibited 0-25% inhibition of calcium ion influx induced by capsaicin stimulation)

SMILES: O=C(Nc1ccc2ccccc2c1)c1ccc(-c2ncccc2Cl)c(F)c1 [Compound 160]
- % Inhibition @ 1 uM: + + + + (compound exhibited 75% or greater inhibition of calcium ion influx induced by capsaicin stimulation)

SMILES: O=C(O)c1cccc(NC(=O)c2ccc(-c3ncccc3Cl)c(F)c2)c1 [Compound 165]
- % Inhibition @ 1 uM: + (compound exhibited 0-25% inhibition of calcium ion influx induced by capsaicin stimulation)

SMILES: O=C(Nc1ccc(Cl)c(C(=O)O)c1)c1ccc(-c2ncccc2Cl)c(F)c1 [Compound 166]
- % Inhibition @ 1 uM: + + + + (compound exhibited 75% or greater inhibition of calcium ion influx induced by capsaicin stimulation)

SMILES: COc1ccc(NC(=O)c2ccc(-c3ncccc3Cl)c(F)c2)cc1O [Compound 170]
- % Inhibition @ 1 uM: + + (compound exhibited 25-50% inhibition of calcium ion influx induced by capsaicin stimulation)

SMILES: O=C(Nc1ccc2cn[nH]c2c1)c1ccc(-c2ncccc2Cl)c(F)c1 [Compound 172]
- % Inhibition @ 1 uM: + + + (compound exhibited 50-75% inhibition of calcium ion influx induced by capsaicin stimulation)

SMILES: CCCOc1ccc(NC(=O)c2ccc(-c3ncccc3Cl)c(F)c2)cc1 [Compound 173]
- % Inhibition @ 1 uM: + + (compound exhibited 25-50% inhibition of calcium ion influx induced by capsaicin stimulation)

SMILES: O=C(Nc1ccc(OC(F)(F)F)cc1)c1ccc(-c2ncccc2Cl)c(F)c1 [Compound 175]
- % Inhibition @ 1 uM: + + (compound exhibited 25-50% inhibition of calcium ion influx induced by capsaicin stimulation)

SMILES: O=C(Nc1cccc(OC(F)(F)F)c1)c1ccc(-c2ncccc2Cl)c(F)c1 [Compound 176]
- % Inhibition @ 1 uM: + (compound exhibited 0-25% inhibition of calcium ion influx induced by capsaicin stimulation)

SMILES: CC(C)Oc1cccc(NC(=O)c2ccc(-c3ncccc3Cl)c(F)c2)c1 [Compound 177]
- % Inhibition @ 1 uM: + (compound exhibited 0-25% inhibition of calcium ion influx induced by capsaicin stimulation)

SMILES: O=C(Nc1ccc(F)c(F)c1)c1ccc(-c2ncccc2Cl)c(F)c1 [Compound 178]
- % Inhibition @ 1 uM: + + + (compound exhibited 50-75% inhibition of calcium ion influx induced by capsaicin stimulation)

SMILES: O=C(Nc1ccc(N2CCNCC2)c(Cl)c1)c1ccc(-c2ncccc2Cl)c(F)c1 [Compound 183]
- % Inhibition @ 1 uM: + + + + (compound exhibited 75% or greater inhibition of calcium ion influx induced by capsaicin stimulation)

SMILES: CC1CCCc2ccc(NC(=O)c3ccc(-c4ncccc4Cl)c(F)c3)cc21 (stereo not drawn) [Compound 186]
- % Inhibition @ 1 uM: + (compound exhibited 0-25% inhibition of calcium ion influx induced by capsaicin stimulation)

SMILES: COc1cc(C(=O)NC(C)(C)C)ccc1-c1ncccc1Cl [Compound 187]
- % Inhibition @ 1 uM: + (compound exhibited 0-25% inhibition of calcium ion influx induced by capsaicin stimulation)

SMILES: COc1cc(C(=O)Nc2ccccc2)ccc1-c1ncccc1Cl [Compound 189]
- % Inhibition @ 1 uM: + (compound exhibited 0-25% inhibition of calcium ion influx induced by capsaicin stimulation)

SMILES: COc1ccc(NC(=O)c2ccc(-c3ncccc3Cl)c(OC)c2)cc1 [Compound 190]
- % Inhibition @ 1 uM: + (compound exhibited 0-25% inhibition of calcium ion influx induced by capsaicin stimulation)

SMILES: COc1cc(C(=O)Nc2ccccc2C#N)ccc1-c1ncccc1Cl [Compound 192]
- % Inhibition @ 1 uM: + (compound exhibited 0-25% inhibition of calcium ion influx induced by capsaicin stimulation)

SMILES: COc1cc(C(=O)Nc2cccc(Cl)c2)ccc1-c1ncccc1Cl [Compound 193]
- % Inhibition @ 1 uM: + (compound exhibited 0-25% inhibition of calcium ion influx induced by capsaicin stimulation)

SMILES: COc1ccccc1NC(=O)c1ccc(-c2ncccc2Cl)c(OC)c1 [Compound 194]
- % Inhibition @ 1 uM: + + (compound exhibited 25-50% inhibition of calcium ion influx induced by capsaicin stimulation)

SMILES: CCCc1ccccc1NC(=O)c1ccc(-c2ncccc2Cl)c(OC)c1 [Compound 195]
- % Inhibition @ 1 uM: + + (compound exhibited 25-50% inhibition of calcium ion influx induced by capsaicin stimulation)

SMILES: COc1cccc(NC(=O)c2ccc(-c3ncccc3Cl)c(OC)c2)c1 [Compound 196]
- % Inhibition @ 1 uM: + + (compound exhibited 25-50% inhibition of calcium ion influx induced by capsaicin stimulation)

SMILES: COc1cc(C(=O)Nc2cccc(Cl)c2Cl)ccc1-c1ncccc1Cl [Compound 199]
- % Inhibition @ 1 uM: + + + + (“+ + + +” compound exhibited 75% or greater inhibition of calcium ion influx induced by capsaicin stimulation.)

SMILES: COc1cc(C(=O)Nc2cccc(C#N)c2)ccc1-c1ncccc1Cl [Compound 201]
- % Inhibition @ 1 uM: + + + + (“+ + + +” compound exhibited 75% or greater inhibition of calcium ion influx induced by capsaicin stimulation.)
